# Reference: EP0802184B1, “N-Benzyl-2-phenylindoles as estrogenic agents” (Wyeth, priority 1996, dated 1997)
# Key:
# Ishikawa cells = experiment: Ishikawa Cell Alkaline Phosphatase Assay; type: cell-based, human; conditions: 48 h
# Method: Cells were treated for 48 h prior to assay. […] Sample population for at each dose was n=8. […] Plates are placed at -80°C for a minimum of 15 minutes. Plates are thawed at 37°C followed by the addition of 150μL of 0.1 M Tris-HCl, pH 9.8, containing 4 mM para-nitrophenylphosphate (pNPP) to each well (final concentration, 3 mM pNPP). Absorbance and slope calculations were made using the […] Application program (Bio-Tek Instruments, Inc., Winooski, VT). […] Various compounds were assayed for estrogenic activity by the alkaline phosphatase method and corresponding ED50 values (95% C.I.) were calculated. The four listed in the following were used as reference standards: A description of such methods is provided by Holinka, […]., Kuramoto, H. and Gurpide, E. (1986) Effects of steroid hormones and antisteroids on alkaline phosphatase activity in human endometrial cancer cells (Ishikawa Line). Cancer Research, 46:2771-2774, and by […]. and by […] simple and sensitive microtiter plate estrogen bioassay based on stimulation alkaline phosphatase in Ishikawa cells; […] Endocrinology, 6:2757-2762.
# estrogen receptor [1] = biological target: T1, estrogen receptor (Homo sapiens, UniProt P03372); experiment: In vitro estrogen receptor binding assay (competition with [3H]-17β-estradiol); parameters: expressed in transfected cells; host or cells: CHO cells (ribosome-free cytosol); conditions: relative to 17β-estradiol=100; cytosol of CHO cells overexpressing the estrogen receptor
# T1 sequence (P03372 1-595): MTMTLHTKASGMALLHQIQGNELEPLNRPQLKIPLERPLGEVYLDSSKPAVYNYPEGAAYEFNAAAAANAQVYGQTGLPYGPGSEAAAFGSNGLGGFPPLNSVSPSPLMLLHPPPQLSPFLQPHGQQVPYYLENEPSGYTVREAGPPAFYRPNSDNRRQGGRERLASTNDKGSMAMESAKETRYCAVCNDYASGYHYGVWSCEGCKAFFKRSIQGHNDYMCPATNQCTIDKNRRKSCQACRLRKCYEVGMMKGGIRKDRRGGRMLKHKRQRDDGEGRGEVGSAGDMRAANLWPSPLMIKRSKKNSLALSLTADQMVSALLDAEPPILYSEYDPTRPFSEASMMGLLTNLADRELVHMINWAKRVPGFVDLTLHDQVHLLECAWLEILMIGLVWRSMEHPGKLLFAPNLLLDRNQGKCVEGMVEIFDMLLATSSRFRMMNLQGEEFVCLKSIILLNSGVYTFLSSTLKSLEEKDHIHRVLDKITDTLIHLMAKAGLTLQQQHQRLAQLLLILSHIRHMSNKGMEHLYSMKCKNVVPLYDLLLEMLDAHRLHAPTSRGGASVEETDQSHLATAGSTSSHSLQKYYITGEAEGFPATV
# Method: CHO cells overexpressing the estrogen receptor were grown in 150 mm^2 dishes in DMEM + 10% dextran coated charcoal, stripped fetal bovine serum. The plates were washed twice with PBS and once with 10mM Tris-HCl, pH 7.4, 1mM EDTA. Cells were harvested by scraping the surface and then the cell suspension was placed on ice. Cells were disrupted with a hand-held motorized tissue grinder using two, 10-second bursts. The crude preparation was centrifuged at 12,000g for 20 minutes followed by a 60 minute spin at 100,000g to produce a ribosome free cytosol. The cytosol was then frozen and stored at -80°C. Protein concentration of the cytosol was estimated using the BCA assay with reference standard protein.
# 100uG/100uL of the receptor preparation was aliquoted per well. […] The plate was incubated at room temperature for 2.5 h. At the end of this incubation period 150 uL of ice-cold dextran coated charcoal (5% activated charcoal coated with 0.05% 69K dextran) was added to each well and the plate was immediately centrifuged at 99g for 5 minutes at 4°C. 200 uL of the supernatant solution was then removed for scintillation counting. Samples were counted to 2% or 10 minutes, whichever occurs first. […] Also, wells containing radioactivity but no cytosol were processed with charcoal to estimate unremovable DPM of [^3H]
# Counts per minute (CPM) of radioactivity were automatically converted to disintegrated per minute (DPM) by the Beckman LS 7500 Scintillation Counter using a set of quenched standards to generate a H# for each sample.
# For the generation of IC50 curves, % binding is plotted vs compound. […] For a description of these methods, see Hulme, E.C., ed. 1992. Receptor-Ligand Interactions: A Practical Approach. IRL Press, New York.(see especially chapter 8).
# estrogen receptor [2] = biological target: T1, estrogen receptor; experiment: 2X VIT ERE Transfection Assay (Infection Luciferase Assay); type: cell-based; conditions: 24 h
# Method: Chinese Hamster Ovary cells (CHO) which had been stably transfected with the human estrogen receptor were maintained in DMEM + 10% fetal bovine serum (FBS). 48h prior to treatment the growth medium was replaced with DMEM lacking phenol red + 10% dextran coated charcoal stripped FBS (treatment medium). Cells were plated at a density of 5000 cells/well in 96-well plates containing 200 µL of medium/well.
# Reporter DNA (Promega plasmid pGL2 containing two tandem copies of the vitellogenin ERE in front of the minimal thymidine kinase promoter driving the luciferase gene) was combined with the B-galactosidase expression plasmid pCH110 (Pharmacia) and carrier DNA (pTZ18U) in the following ratio: • 10uG of reporter DNA • 5uG of pCH110DNA • 5 uG of pTZ18U • 20 uG of DNA/1 mL of transfection solution
# 20 uL of this mixture was added to each well of cells and remained on the cells for 16 h. […] Each treatment condition was performed on 8 wells (n=8) which were incubated for 24 h prior to the luciferase assay.
# After removing the PBS, 25 uL of Promega lysis buffer was added to each well and allowed to stand at room temperature for 15 min, followed by 15 min at -80°C and 15 min at 37°C. 20 uL of lysate was transferred to an opaque 96 well plate for luciferase activity evaluation and the remaining lysate (5 uL) was used for the B-galactosidase activity evaluation (normalize transfection). The luciferan substrate (Promega) was added in 100 uL aliquots to each well automatically by the luminometer and the light produced (relative light units) was read 10 seconds after addition.
# To the remaining 5 uL of lysate 45 uL of PBS was added. Then 50 uL of Promega B-galactosidase 2X assay buffer was added, mixed well and incubated at 37°C for 1 hour. A plate containing a standard curve (0.1 to 1.5 milliunits in triplicate) was set up for each experimental run. The plates were analyzed on a Molecular Devices spectrophotometric plate reader at 410 nm. The optical densities for the unknown were converted to milliunits of activity by mathematical extrapolation from the standard curve.
# The luciferase data was generated as relative light units (RLUs) accumulated during a 10 second measurement and automatically transferred to a JMP (SAS Inc) file where background RLUs were subtracted. The B-galactosidase values were automatically imported into the file and these values were divided into the RLUs to normalize the data. The mean and standard deviations were determined from a n=8 for each treatment. […] These techniques are described by Tzukerman, M.T., Esty, A., Santiso-Mere, D., Danielian, P., Parker, M.G., Stein, R.B., Pike, J.W. and McDonnel, D.P. (1994). Human estrogen receptor transactivational capacity was determined by both cellular and promoter context and mediated by two functionally distinct intramolecular regions (see Molecular Endocrinology, 8:21-30).
structure (smiles),measurement,setting,value
"Cc1c(-c2ccc(O)cc2)n(Cc2ccc(/C=C/C(N)=O)cc2)c2ccc(O)cc12 [Example 14, (E)-3-{4-[5-hydroxy-2-(4-hydroxy-phenyl)-3-methyl-indol-1-ylmethyl]-phenyl}-acrylamide]",% Activation (Compound + 1 nM 17β-estradiol),Ishikawa cells; 10^-6 M compound + 10^-9 M 17β-estradiol,14%
same,% Activation,"Ishikawa cells; compound alone, percent of response related to 1 nM 17β-estradiol",2%
same,Estrogen Receptor Affinity (reported as RBA: 17β-estradiol=100),estrogen receptor [1],32
same,% Activation with 1 nM 17β-estradiol,estrogen receptor [2]; 1 uM compound + 1 nM 17β-estradiol (test for estrogen antagonism),57%
same,% Activation,"estrogen receptor [2]; compound alone (1 uM), compared to 17β-estradiol",19%
